According to US20140066449A1, “DIPYRIDINIUM DERIVATIVES” (SABREPHARM LIMITED, priority 2011, published 2014):
Read-outs that look alike come from different tables or passages of the source. Values belong to the compound of their own block, whether it stands above or below them.

Columns and labels:
[1] = system: A2780/cis [cisplatin ovarian resistant line]; assay: Combination with cisplatin, A2780/cis; format: cell-based
M 14 [melanoma] = assay: Combination with cisplatin, M14; format: cell-based
[2] = system: H460 non-small cell lung adenocarcinoma; assay: MTT in vitro cytotoxicity, H460; format: cell-based; conditions: Homo sapiens, NCI-H460, 240 h, H460, 10 day exposure
Protocol: (§1) All were stored in the dark at 4° C. An accurately weighed amount of each compound was dissolved in DMSO and Hank's Balanced Salt Solution (Sigma) according to Table 2 below:
(§2) Further dilutions were made in complete RPMI1640 cell culture medium (RPMI1640 cell culture medium supplemented with 10% foetal bovine serum, 1 mM L-glutamine, and 2 mM sodium pyruvate (all from Sigma)).
(§3) H460 non-small cell lung adenocarcinoma, HT-29 colon adenocarcinoma and MCF-7 breast adenocarcinoma (ECACC, Salisbury, Wiltshire) were used for analysis. Cells were cultured in complete RPMI1640 cell culture medium, and maintained as monolayer cultures at 37° C. in a humidified 5% CO2 environment.
(§4) Tumour cell growth inhibition was assessed using the MTT assay with a standard 96 hour plus an extended 10 day incubation. For the 96 hour assay 1×10^4 cells were inoculated into each well of a 96-well plate and incubated overnight at 37° C. in a humidified atmosphere containing 5% CO2 to give time to adhere to the wells and form a monolayer. For the 10 day incubation, 1×102 (H460 and HT-29) and 1×103 (MCF-7) cells were inoculated. The next day, culture medium was removed from each well and replaced with cell culture media for the untreated control, or media containing compound, and the plates then incubated for a further 96 hours or 10 days. […] After 96 hours or 10 days culture medium was removed and 200 μL of 0.5 mgmL-1 MTT solution (Sigma) in complete medium added to each well. Following a further 4 hours incubation, the solution was removed from each well and 150 μL of DMSO added to solubilise the formazan crystals resulting from MTT conversion. Absorbance values for the resulting solutions were read at 550 nm on a Multiskan Ex microplate reader (Thermo Fisher, Loughborough, UK) and cell survival calculated as the absorbance of treated cells divided by the control. Results are expressed in terms of IC50 values (i.e. concentration of compound required to kill 50% of cells), which were determined manually in Microsoft Excel from plots of concentration versus percentage cell survival, and all experiments were performed in triplicate.

[3] = Redox potential study, square wave voltammetry; format: physicochemical; conditions: 0.1 mol dm-3 LiNTf2, 20° C., first scan
Protocol: BioAnalytical Systems CV50W potentiostat (from BAS Inc., USA)
Square wave voltammetry (4 mV step, 25 mV pulse, 10 Hz SW frequency)
3 mm diameter glassy carbon working electrode (from BAS)
3 mm diameter glassy carbon counter electrode (from BAS)
Saturated calomel reference electrode (SCE, from Sycopel Scientific Ltd., UK)
0.1 mol dm-3 lithium bis(trifluoromethanesulphonyl)imide ((LiNTf2)CAS 90076-65-6, from 3M)
Voltammograms were recorded from 0.5 V to −1.2 V in deoxygenated solutions of the Compounds.

[4] = system: HT-29 colon adenocarcinoma; assay: MTT in vitro cytotoxicity, HT-29; format: cell-based; conditions: Homo sapiens, 240 h, HT-29, 10 day exposure
Protocol: as §1, §2, §3, §4

[5] = system: MCF-7 breast adenocarcinoma; assay: MTT in vitro cytotoxicity, MCF-7; format: cell-based, human; conditions: Homo sapiens, MCF7, 240 h, MCF-7, 10 day exposure
Protocol: as §1, §2, §3, §4

[6] = system: human mitochondria isolated from HEK293 cells; assay: ROS production in isolated mitochondria (DCFDA); format: biochemical; conditions: isolated HEK293 mitochondria, 100 μM, 120 mins
Protocol: The ability of test compounds to impact ROS production in isolated mitochondria after 120 mins exposure was assessed.
Mitochondria were isolated from harvested human embryonic kidney (HEK293) cells (20×10^6) using a commercial kit (Thermo Scientific) before re-suspension in PBS to a final volume of 800 μL. […] Independent experiments (each assessing the impact of all four compounds along with a positive [AAPH; 5.0 mM] and vehicle control) were repeated three times.

A2780 [ovarian] = assay: Combination with cisplatin, A2780; format: cell-based
MCF7 [Breast] = assay: Combination with cisplatin, MCF-7; format: cell-based, human
rat = conditions: oral; cited from earlier work
dog = conditions: oral; cited from earlier work
[7] = compound 1 μM + cisplatin 10 μM
[8] = compound 3 μM + cisplatin 10 μM
[9] = compound 10 μM + cisplatin 10 μM
[10] = compound 10 μM + cisplatin 1 μM
[11] = compound 10 μM + cisplatin 3 μM
[12] = highest concentration 30 μM, read-out: IC50 Run 1
[13] = highest concentration 100 μM, read-out: IC50 Run 2
[14] = highest concentration 100 μM, read-out: IC50 Run 3
[15] = mean of runs, read-out: IC50 Mean

Reduction potential 1 [3]: −0.460 V vs. SCE
Reduction potential 2 [3]: −0.932 V vs. SCE
Structure (SMILES): OCc1ccc2[n+](c1)CC[n+]1ccccc1-2 [Compound B, 3-(hydroxymethyl)-6,7-dihydrodipyrido[1,2-a:2′,1′-c]pyrazine-5,8-diium bistrifluoromethanesulfonate]
% cell survival [1, 7]: 32.1%
% cell survival ([1]; compound 1 μM + cisplatin 30 μM): 6.5%
% cell survival ([1]; compound 1 μM + cisplatin 100 μM): 0%
% cell survival ([1]; compound 1 μM, cisplatin 0 μM): 74.4%
% cell survival [1, 8]: 24.2%
% cell survival ([1]; compound 3 μM + cisplatin 30 μM): 8.1%
% cell survival ([1]; compound 3 μM + cisplatin 100 μM): 3.3%
% cell survival ([1]; compound 3 μM, cisplatin 0 μM): 44.7%
% cell survival [1, 9]: 9%
% cell survival ([1]; compound 10 μM + cisplatin 30 μM): 5%
% cell survival ([1]; compound 10 μM + cisplatin 100 μM): 2.1%
% cell survival ([1]; compound 10 μM, cisplatin 0 μM): 15.4%
% cell survival (M 14 [melanoma]; compound 1 μM + cisplatin 1 μM): 88.4%
% cell survival (M 14 [melanoma]; compound 1 μM + cisplatin 3 μM): 83.8%
% cell survival (M 14 [melanoma]; [7]): 58.4%
% cell survival (M 14 [melanoma]; compound 1 μM, cisplatin 0 μM): 93.2%
% cell survival (M 14 [melanoma]; compound 3 μM + cisplatin 1 μM): 78.9%
% cell survival (M 14 [melanoma]; compound 3 μM + cisplatin 3 μM): 72%
% cell survival (M 14 [melanoma]; [8]): 47.1%
% cell survival (M 14 [melanoma]; compound 3 μM, cisplatin 0 μM): 79.7%
% cell survival (M 14 [melanoma]; [10]): 55.7%
% cell survival (M 14 [melanoma]; [11]): 50.2%
% cell survival (M 14 [melanoma]; [9]): 33.4%
% cell survival (M 14 [melanoma]; compound 10 μM, cisplatin 0 μM): 59.2%
IC50 [2, 12]: 4.7 µM
IC50 [2, 13]: 4.7 µM
IC50 [2, 14]: 5 µM
IC50 [2, 15]: 4.8 µM
IC50 [4, 12]: 1.8 µM
IC50 [4, 13]: 1.2 µM
IC50 [4, 14]: 1.8 µM
IC50 [4, 15]: 1.6 µM
IC50 [5, 12]: 2.7 µM
IC50 [5, 13]: 2.3 µM
IC50 [5, 14]: 5.9 µM
IC50 [5, 15]: 3.6 µM
rank order of efficacy (ROS production) [6]: F>G>B>A
ROS production relative to vehicle treatment ([6]; room temperature): a more modest increase
% cell survival (A2780 [ovarian]; compound 1 μM + cisplatin 1 μM): 55.2%
% cell survival (A2780 [ovarian]; compound 1 μM + cisplatin 3 μM): 20.3%
% cell survival (A2780 [ovarian]; [7]): 5.5%
% cell survival (A2780 [ovarian]; compound 1 μM, cisplatin 0 μM): 88.5%
% cell survival (A2780 [ovarian]; compound 3 μM + cisplatin 1 μM): 46.3%
% cell survival (A2780 [ovarian]; compound 3 μM + cisplatin 3 μM): 18.3%
% cell survival (A2780 [ovarian]; [8]): 5.4%
% cell survival (A2780 [ovarian]; compound 3 μM, cisplatin 0 μM): 59%
% cell survival (A2780 [ovarian]; [10]): 20.4%
% cell survival (A2780 [ovarian]; [11]): 11.7%
% cell survival (A2780 [ovarian]; [9]): 3.9%
% cell survival (A2780 [ovarian]; compound 10 μM, cisplatin 0 μM): 35.7%
% cell survival (MCF7 [Breast]; compound 1 μM + cisplatin 0.1 μM): 87.3%
% cell survival (MCF7 [Breast]; compound 1 μM + cisplatin 0.3 μM): 77.9%
% cell survival (MCF7 [Breast]; compound 1 μM + cisplatin 1 μM): 72.3%
% cell survival (MCF7 [Breast]; compound 1 μM, cisplatin 0 μM): 76.2%
% cell survival (MCF7 [Breast]; compound 3 μM + cisplatin 0.1 μM): 81.4%
% cell survival (MCF7 [Breast]; compound 3 μM + cisplatin 0.3 μM): 73.2%
% cell survival (MCF7 [Breast]; compound 3 μM + cisplatin 1 μM): 74.3%
% cell survival (MCF7 [Breast]; compound 3 μM, cisplatin 0 μM): 69.1%
% cell survival (MCF7 [Breast]; compound 10 μM + cisplatin 0.1 μM): 63.7%
% cell survival (MCF7 [Breast]; compound 10 μM + cisplatin 0.3 μM): 51.7%
% cell survival (MCF7 [Breast]; [10]): 46.3%
% cell survival (MCF7 [Breast]; compound 10 μM, cisplatin 0 μM): 67.3%

Structure (SMILES): CN(Cc1cnc2nc(N)nc(N)c2n1)c1ccc(C(=O)N[C@@H](CCC(=O)O)C(=O)O)cc1 [Methotrexate]
LD50 rat (rat): 180 to 320 mg/kg
LD50 dog (dog): 120 mg/kg
